Measurements reported in patent publication US5374733A, “Sweetening agent derived from L-aspartic or L-glutamic acid” (priority 1989, dated 1994).
Like-named read-outs stand apart in the source and are kept apart here. Blank lines part the entries; values can stand above or below the compound they belong to. Peptide text beside a SMILES is read from it.

Tests used:
[1] = Stability: accelerated ageing in aqueous solution at pH 3 and 70° C., remaining product by HPLC (half-life); type: physicochemical; details: pH 3, 70° C.
Method: The stability of the compounds of the invention, in particular those containing the L-glutamyl residue, is very high and can in certain cases be about three hundred times greater than that of the compounds of the prior art.
The stability of the compounds of the prior art and those of the invention is measured using high performance liquid chromatography to determine the amount of product remaining after accelerated ageing in an acid medium (phosphate buffer at pH 3) and at high temperature (70° C.). Under these experimental conditions, measurement of the half-life (time corresponding to 50% degradation) makes it possible to evaluate the potential stability of the compounds tested in this way. A compound of low stability will have a very short half-life of only a few hours, whereas a very stable compound will have a half-life of several tens of days, as is the case, for example, of compounds (5) and (6) of the invention, which have a half-life of about 60 days (FIG. 1).

[2] = cited from earlier work
[3] = Sweetening potency: taste comparison by a team of eight experienced people with a sucrose reference solution; details: weight basis
Method: The sweetening potency of the compounds described in the Examples was evaluated by a team of eight experienced people. This is done by comparing the taste of the compounds, in aqueous solution at variable concentrations, with a 2%, 5 % or 10 % reference solution of sucrose. The sweetening potency of the test compound compared with sucrose then corresponds to the weight ratio between the compound and sucrose for equal sweetening intensity, i.e. when the sweet tastes of the solution of the test compound and the reference solution of sucrose are considered, by a majority of people, to have the same sweetening intensity.
Summary Table 3 below gives, by way of examples, a list of a few compounds obtained by experimental protocols similar to those described above, which those skilled in the art will easily find, together with their relative sweetening potency (SP), evaluated on a weight basis, compared with a 2% aqueous solution of sucrose. When the groups R1, R2 and R3 are different, the configuration of the asymmetric carbon to which they are bonded (carbon marked with an asterisk) is designated according to the conventional rules of stereochemistry using the R/S system: R, S or, when both configurations coexist in the same compound, RS.

[4] = phosphate buffer, pH 3, accelerated ageing, read-out: half-life (converted)
[5] = Table 2, EP-A-0.338.946, sucrose concentration not stated
[6] = prior art and aspartame, sucrose concentration not given
[7] = phosphate buffer, pH 3, accelerated ageing, prior art compounds, read-out: half-life (converted)

stability (in words) ([1]; accelerated ageing): high stability
half-life [1, 4]: ~1440 h
Compound: CCCC[C@H](C)C(=O)N[C@@H](CCC(=O)O)C(=O)Nc1ccc(C#N)nc1 [(5)]

Compound: N#Cc1ccc(NC(=O)[C@H](CCC(=O)O)NCc2ccccc2)cc1 [C6 H5 CH2/2/4-CN--C6 H4]
SP [2, 5]: 20

Compound: CC(CCN[C@@H](CCC(=O)O)C(=O)Nc1ccc(C#N)cc1)c1ccccc1 (some centres unmarked) [C6 H5 CH(CH3)CH2 CH2/2/4-CN--C6 H4]
SP [2, 5]: 400

Compound: N#Cc1ccc(NC(=O)[C@H](CCC(=O)O)NCC=Cc2ccccc2)cc1 [C6 H5 CH=CHCH2/2/4-CN--C6 H4]
SP [2, 5]: 2000

Compound: CCCC(C)CN[C@@H](CCC(=O)O)C(=O)Nc1ccc(C#N)cc1 (some centres unmarked) [CH3 (CH2)2 CH(CH3)CH2/2/4-CN--C6 H4]
SP [2, 5]: 5000

Compound: CCCC=CCN[C@@H](CCC(=O)O)C(=O)Nc1ccc(C#N)cc1 [CH3 (CH2)2 CH=CHCH2/2/4-CN--C6 H4]
SP [2, 5]: 3000

Compound: CCCCCN[C@@H](CC(=O)O)C(=O)Nc1ccc(C#N)cc1 [CH3 (CH2)3 CH2/1/4-CN--C6 H4]
SP [2, 5]: 300

Compound: CCCCCN[C@@H](CCC(=O)O)C(=O)Nc1ccc(C#N)cc1 [CH3 (CH2)3 CH2/2/4-CN--C6 H4]
SP [2, 5]: 1500

Compound: CCCCCCN[C@@H](CC(=O)O)C(=O)Nc1ccc(C#N)cc1 [CH3 (CH2)4 CH2/1/4-CN--C6 H4]
SP [2, 5]: 600

Compound: CCCCCCN[C@@H](CCC(=O)O)C(=O)Nc1ccc(C#N)cc1 [CH3 (CH2)4 CH2/2/4-CN--C6 H4]
SP [2, 5]: 5000

Compound: CCCCCCCN[C@@H](CC(=O)O)C(=O)Nc1ccc(C#N)cc1 [CH3 (CH2)5 CH2/1/4-CN--C6 H4]
SP [2, 5]: 2000

Compound: CCCCCCCN[C@@H](CCC(=O)O)C(=O)Nc1ccc(C#N)nc1 [CH3 (CH2)5 CH2/2/2-CN-pyrid-5-yl]
SP [2, 5]: 4000

Compound: CCCCCCCN[C@@H](CCC(=O)O)C(=O)Nc1ccc(C#N)cc1 [CH3 (CH2)5 CH2/2/4-CN--C6 H4]
SP [2, 5]: 7000

Compound: CCCCCCCCN[C@@H](CC(=O)O)C(=O)Nc1ccc(C#N)cc1 [CH3 (CH2)6 CH2/1/4-CN--C6 H4]
SP [2, 5]: 400

Compound: CCCCCCCCN[C@@H](CCC(=O)O)C(=O)Nc1ccc(C#N)cc1 [CH3 (CH2)6 CH2/2/4-CN--C6 H4]
SP [2, 5]: 2000

Compound: CC=CC=CCN[C@@H](CCC(=O)O)C(=O)Nc1ccc(C#N)cc1 [CH3 CH=CHCH=CHCH2/2/4-CN--C6 H4]
SP [2, 5]: 2000

half-life ([1]; accelerated ageing): about 60 days
stability (in words) ([1]; accelerated ageing): excellent
Compound: CCCC[C@H](C)C(=O)N[C@@H](CCC(=O)O)C(=O)Nc1ccc(C#N)nc1 [Example 1, N-[(S)-2-methylhexanoyl]-alpha-L-glutamyl-5-aminopyridine-2-carbonitrile]

stability (in words) ([1]; accelerated ageing): excellent
half-life [1, 4]: ~1680 h
Compound: CCCCC(C)(C)C(=O)N[C@@H](CCC(=O)O)C(=O)Nc1ccc(C#N)nc1 [Example 2, N-(2,2-dimethylhexanoyl)-alpha-L-glutamyl-5-aminopyridine-2-carbonitrile]

stability (in words) ([1]; accelerated ageing): very high
half-life [1, 4]: ~1440 h
Compound: C[C@@H](Oc1ccccc1)C(=O)N[C@@H](CCC(=O)O)C(=O)Nc1ccc(C#N)nc1 [Example 3, N-[(R)-2-phenoxypropanoyl]-alpha-L-glutamyl-5-aminopyridine-2-carbonitrile]

stability (in words) ([1]; accelerated ageing): excellent
half-life [1, 4]: > 1440 h
Compound: CCCC[C@H](C)C(=O)N[C@@H](CCC(=O)O)C(=O)Nc1ccc(C#N)cc1 [Example 4, N-[(S)-2-methylhexanoyl]-alpha-L-glutamyl-4-aminophenylcarbonitrile]
SP (relative sweetening potency) ([3]; Table 3, compared with a 2% aqueous solution of sucrose): 9000
sweetening potency ([3]; by comparison with a 2% solution of sucrose): ~9000 times that of sucrose

Compound: O=C(O)C[C@H](NC(=O)C(Cl)(Cl)Cl)C(=O)Nc1cccnc1 [Y=H, X=CCl3 CO]
sweetening potency [2, 6]: 1 times that of sucrose

Compound: O=C(O)C[C@H](NC(=O)C(F)(F)F)C(=O)Nc1cccnc1 [Y=H, X=CF3 CO]
sweetening potency [2, 6]: 40 times that of sucrose

stability (in words) ([1]; accelerated ageing): relatively low stability
half-life [1, 4]: 24 h
Compound: COC(=O)[C@H](Cc1ccccc1)NC(=O)[C@@H](N)CC(=O)O [aspartame, reference compound] (H-Asp-Phe-OMe)
sweetening potency [2, 6]: 180 times that of sucrose

Compound: N#Cc1ccc(NC(=O)[C@H](CCC(=O)O)NCCCC2CCCCC2)cc1 [c-C6 H11 CH2 CH2 CH2/2/4-CN--C6 H4]
SP [2, 5]: 7000

Compound: N#Cc1ccc(NC(=O)[C@H](CC(=O)O)NCC2CCCCC2)cc1 [c-C6 H11 CH2/1/4-CN--C6 H4]
SP [2, 5]: 200

Compound: CC(N[C@@H](CC(=O)O)C(=O)Nc1ccc(C#N)cc1)C1CCCCC1 (some centres unmarked) [c-C6 H11 CH(CH3)/1/4-CN--C6 H4]
SP [2, 5]: 200

half-life [1, 7]: ~15 h
Compound: N#Cc1ccc(NC(=O)[C@H](CC(=O)O)NC(=O)C(F)(F)F)cc1 [compound (1)]
sweetening potency [2, 6]: 3000 times that of sucrose
sweetening potency ([2]; prior art, by comparison with a 2% solution of sucrose): 3000 times that of sucrose

half-life [1, 7]: ~20 h
Compound: N#Cc1ccc(NC(=O)[C@H](CC(=O)O)NC=O)cc1 [compound (2), reference compound]
sweetening potency [2, 6]: 40 times that of sucrose

half-life [1, 7]: ~8 h
Compound: N#Cc1ccc(NC(=O)[C@H](CC(=O)O)NC(=O)c2ccccc2)cc1 [compound (3)]
sweetening potency (SP) ([2]; JP-A-87-252754, text, by comparison with a 5% solution of sucrose): 720 times that of sucrose
SP ([2]; Table 1, JP-A-87-252754, by comparison with a 5% solution of sucrose): 720 times that of sucrose
sweetening potency [2, 6]: 720 times that of sucrose

half-life [1, 4]: ~48 h
Compound: N#Cc1ccc(NC(=O)[C@H](CC(=O)O)NCc2ccccc2)cc1 [compound (4)]
SP [2, 5]: 1000
sweetening potency [2, 6]: 1000 times that of sucrose
